The values below come from patent US9157102B2, “Over-expression of NADH-dependent oxidoreductase (fucO) for increasing furfural or 5-hydroxymethylfurfural tolerance” (UNIVERSITY OF FLORIDA RESEARCH FOUNDATION, INCORPORATED, priority 2011, dated 2015).

Converted amounts (≈) assume the structure as drawn. Read-outs that look alike come from different tables or passages of the source.

Series [1] has as its target T1, FucO (Escherichia coli, UniProt P0A9S1).
T1 construct: The FucO coding region was cloned into pET15b to produce pLOI4322; made in house; host or cells: E. coli BL21(λDE3) carrying pLOI4322
T1 sequence (P0A9S1 1-382): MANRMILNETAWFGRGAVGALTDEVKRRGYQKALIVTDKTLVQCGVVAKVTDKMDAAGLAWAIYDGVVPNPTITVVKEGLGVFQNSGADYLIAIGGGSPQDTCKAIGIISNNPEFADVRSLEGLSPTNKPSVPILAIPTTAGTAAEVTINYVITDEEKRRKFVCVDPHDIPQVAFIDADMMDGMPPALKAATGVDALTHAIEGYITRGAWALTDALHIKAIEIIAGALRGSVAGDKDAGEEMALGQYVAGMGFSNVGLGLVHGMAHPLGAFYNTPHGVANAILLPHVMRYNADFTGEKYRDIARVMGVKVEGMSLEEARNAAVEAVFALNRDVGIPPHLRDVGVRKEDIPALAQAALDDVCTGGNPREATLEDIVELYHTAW
Kind of series: NADH-/NADPH-dependent furan reduction by purified his-tagged FucO. In kind it is biochemical. The following applies: for NADPH-dependent reductase activity: purified enzyme, NADPH as cofactor. How it is done:
(§1) Cultures were grown overnight to a cell density of approximately 0.66 mg dew ml^−1 (37° C.) in closed tubes containing 20 ml AM1 (50 g liter^−1 xylose, 0.1 mM IPTG and 12.5 mg liter^−1 ampicillin). Cells were harvested by centrifugation (7,000 g for 5 min, 4° C.), washed twice with 10 ml of cold sodium phosphate buffer (50 mM pH 7.0), resuspended to a cell density of 4.4 mg dew ml^−1, and disrupted in buffer containing 1 mM dithiothreitol using a Fastprep-24 (MP Biomedicals, Solon, Ohio). After clarification at 13,000 g (10 min, 4° C.), protein concentration was determined using a BCA™ Protein Assay Kit (Thermo Scientific, Rockford, Ill.). Furfural-dependent reduction was measured using NADH and NADPH by monitoring the decrease in absorbance at 340 nm (extinction coefficient of NADH of 6,220 M^−1 cm^−1; extinction coefficient of NADPH of […]). Reaction mixtures contained 200 mM phosphate buffer (pH 7.0), 10 mM furfural, and 0.2 mM NADH or NADPH. NADH-dependent and NADPH-dependent reduction of 5-HMF (10 mM) was measured in a similar fashion.
(§2) For the purification of his-tagged FucO, BL21(pLOI4322) was grown in Luria broth at 37° C. When the culture density reached 0.35 g dew liter^−1, IPTG (0.1 mM) was added to induce overexpression. After incubation for 4 h, cells were harvested (7,000 g for 5 min, 4° C.), washed once with 10 mM Tris-HCl (pH 7.1), and lysed using a French pressure cell. After clarification at 30,000 g (1 h, 4° C.), crude extracts were passed through a 0.22 μm polyvinylidene fluoride (PVDF) filter, and further purified using a 1-ml HiTrap™ nickel column (GE Healthcare, Piscataway, N.J.). Purified enzyme was dialyzed in 100 mM phosphate buffer using a Thermo Slide-A-Lyzer and quantified using the BCA™ Protein Assay Kit (Thermo Scientific, Rockford, Ill.).

Series [2] has as its target T1, FucO. To be noted: native substrate, reference (6); cited from earlier work.
The target of series [3] is YqhD (Escherichia coli, UniProt Q46856). The following applies: cited from earlier work.
Series [4] deals with LY180(pTrc99A). Description: Furfural toxicity in tube cultures, vector control. In kind it is cell-based. The following applies: Escherichia coli, 48 h, read-out: minimum inhibitory concentration. How it is done: (§3) Furfural toxicity was measured in tube cultures (13 mm by 100 mm) containing 4 ml of AM1 medium with 50 g xylose, 12.5 mg liter^−1 ampicillin, furfural, and other supplements as indicated (28, 29). Cultures were inoculated to an initial density of […] (0.1 mM) was included for fucO induction. Cell mass was measured at 550 nm after incubation for 48 h (37° C.).

Series [5] deals with LY180(pLOI4319). Description: Furfural toxicity in tube cultures, IPTG-induced fucO. In kind it is cell-based. The following applies: Escherichia coli; AM1 medium, xylose, 48 h, 37° C., 0.1 mM IPTG-induced fucO; read-out: minimum inhibitory concentration. How it is done: as §3
Substrate in series [6]: O=Cc1ccco1
Description: NADH-/NADPH-dependent furan reduction by purified his-tagged FucO. In kind it is biochemical, Escherichia coli. The following applies: other: substrate of purified his-tagged FucO, NADH-specific reduction; 37.0 °C. How it is done: as §1, §2

Substrate in series [7]: O=Cc1ccc(CO)o1
The series is described as above. In kind it is biochemical, Escherichia coli. To be noted: other: substrate of purified his-tagged FucO, NADH-specific reduction; 37.0 °C. How it is done:
as §1, §2

Sequence of YqhD (Q46856 whole entry): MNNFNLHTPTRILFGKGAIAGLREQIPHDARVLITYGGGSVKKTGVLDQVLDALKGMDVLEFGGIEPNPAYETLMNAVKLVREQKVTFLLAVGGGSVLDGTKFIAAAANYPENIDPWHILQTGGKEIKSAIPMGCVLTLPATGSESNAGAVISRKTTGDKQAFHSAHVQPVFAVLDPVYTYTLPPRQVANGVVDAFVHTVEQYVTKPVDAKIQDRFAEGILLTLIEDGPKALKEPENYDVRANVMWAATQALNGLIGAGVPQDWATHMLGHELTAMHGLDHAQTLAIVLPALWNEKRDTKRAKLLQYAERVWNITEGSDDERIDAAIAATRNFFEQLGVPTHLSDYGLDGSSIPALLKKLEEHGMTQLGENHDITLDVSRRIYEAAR

Consider `O=Cc1ccc(CO)o1` [5-HMF, 5-hydroxymethylfurfural], for which the NADPH-dependent reductase activity entry in series [1] was “No NADPH-dependent furfural or 5-HMF reductase activity”.

In general, Km refers to the concentration of substrate that gives half-maximal velocity. Consider `C[C@H](O)C=O` [L-lactaldehyde], for which, in series [2], the Km was 0.035 mM and the Vmax was 20 μmol min^−1 mg protein^−1.

With `NC(=O)C1=CN([C@@H]2O[C@H](COP(=O)(O)OP(=O)(O)OC[C@H]3O[C@@H](n4cnc5c(N)ncnc54)[C@H](OP(=O)(O)O)[C@@H]3O)[C@@H](O)[C@H]2O)C=CC1` [NADPH], the Km in series [3] (read-out: Km for NADPH) is 0.008 mM.

In the case of `O=Cc1ccco1` [furfural], the “Vmax relative to that for L-lactaldehyde” value in series [1] (FucO) is given as 10%. The NADPH-dependent reductase activity entry in series [1] is on record as “No NADPH-dependent furfural or 5-HMF reductase activity”. In addition, the MIC turned out to be 10 mM (≈ 961 µg/mL) in series [4] and 15 mM (≈ 1440 µg/mL) in series [5]. Also, the Km in series [3] (reference (29), read-out: Km for furfural) is 9 mM.

B1: FucO (Escherichia coli K-12) (protein)
chain: T1 sequence (P0A9S1 1-382)
notes: The FucO coding region was cloned into pET15b to produce pLOI4322; made in house; host or cells: E. coli BL21(λDE3) carrying pLOI4322
Consider B1, for which, in series [6], the Michaelis constant (Km) was 0.4 ± 0.2 mM and the Vmax amounted to 1.9±0.4 mmol min^−1 mg protein^−1. In series [7], the Km was determined as 0.7 ± 0.3 mM and the Vmax is recorded as 0.30±0.05 mmol min^−1 mg protein^−1.
